Assay results taken from patent US5350768A, “Derivatives of cysteine” (priority 1987, dated 1994).
Read-outs that look alike come from different tables or passages of the source.

Experiments:
[1] = Procedure: (§1) Therefore, experiments were performed to investigate biological stability and bioavailability of the compounds of formula I, and to compare these with N-acetyl-L-cysteine.
[2] = Plasma thiol concentrations after intraintestinal injection in anaesthetized rats
Procedure: as §1
The thiols were injected into the intestines of anaesthetized rats. At various times after the injections blood samples were withdrawn, and plasma thiols analyzed. […] The values given represent mean±SEM, unless otherwise stated.

[3] = Plasma concentrations and urinary excretion in healthy human volunteers after oral intake
Procedure: as §1
Plasma concentrations and urinary excretion in helthy human volunteers were measured after oral intake of N-acetyl-L-cysteine, and N-isobutyryl-L-cysteine, 1.23 mmole of each.

biological stability (in words) [1] | concentration ([2]; rat, in vivo) [µM] | bioavailability / plasma levels after oral intake (in words) ([3]; human, in vivo, po) | hydrolysis in homogenates [1] | SMILES | plasma level after intraintestinal injection (in words) ([2]; rat, in vivo) | concentration ([2]; read-out: concentrations of the thiols in plasma, after injection into intestines of anaesthetized rats, only one experiment performed) [µM] | Cmax ([3]; human, in vivo, po, 1.23 mmol) [µM] | bioavailability / plasma levels after oral intake (in words) ([3]; oral intake)
much more biologically stable | 13 ± 2.9 | reached high concentrations in plasma | – | CC(C)C(=O)N[C@@H](CS)C(=O)O [N-isobutyryl-L-cysteine] | reached considerable concentrations | – | – | –
much more biologically stable | 11.8 | – | not hydrolyzed to any measureable extent | CC(C)(C)C(=O)N[C@@H](CS)C(=O)O [N-pivaloyl-L-cysteine] | – | – | – | –

SMILES | biological stability (in words) [1] | concentration ([2]; rat, in vivo) [µM] | bioavailability / plasma levels after oral intake (in words) ([3]; human, in vivo, po) | hydrolysis in homogenates [1] | plasma level after intraintestinal injection (in words) ([2]; rat, in vivo) | concentration ([2]; read-out: concentrations of the thiols in plasma, after injection into intestines of anaesthetized rats, only one experiment performed) [µM] | Cmax ([3]; human, in vivo, po, 1.23 mmol) [µM] | bioavailability / plasma levels after oral intake (in words) ([3]; oral intake)
CC(=O)N[C@@H](CS)C(=O)O [N-acetyl-L-cysteine, reference compound] | biologically unstable | – | – | – | barely detectable in plasma | 0.7 | < 1 | poor bioavailability
